From US20180209956A1, “HTS Assay for Identifying Small Molecule Inhibitors of RAD52 and Uses of Identified Small Molecule Inhibitors for Treatment and Prevention of BRCA-Deficient Malignancies” (University of Iowa Research Foundation, priority 2015, published 2018) come the findings set out here.

Where a name gives a salt, the structure may show the parent alone. Read-outs that look alike come from different tables or passages of the source. Bounds are passed on as bounds.

One data set concerns the target T1, RAD52-ssDNA interaction (Homo sapiens, UniProt P43351).
T1 construct: made in house
T1 sequence (P43351 1-418): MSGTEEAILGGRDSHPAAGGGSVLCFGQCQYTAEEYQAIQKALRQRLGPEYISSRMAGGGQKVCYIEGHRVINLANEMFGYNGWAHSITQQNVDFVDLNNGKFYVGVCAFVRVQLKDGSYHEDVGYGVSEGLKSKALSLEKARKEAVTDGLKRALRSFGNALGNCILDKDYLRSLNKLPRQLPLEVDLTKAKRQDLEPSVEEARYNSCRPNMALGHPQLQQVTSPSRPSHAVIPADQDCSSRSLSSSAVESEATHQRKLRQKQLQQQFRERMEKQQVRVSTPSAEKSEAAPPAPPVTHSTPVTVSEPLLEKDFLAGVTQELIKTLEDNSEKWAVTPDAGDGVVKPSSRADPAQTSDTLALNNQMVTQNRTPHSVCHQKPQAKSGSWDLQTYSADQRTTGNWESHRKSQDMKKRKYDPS
Briefly: FRET-based ssDNA binding and wrapping assay (RAD52-Cy3-dT30-Cy5 complex). As to conditions: for IC50: read-out: IC50 (DNA binding); for IC50 range for ssDNA binding and wrapping, in words: summary of Table 1. As for the experimental part:
We titrated increasing amounts of each compound into a cuvette containing preformed stoichiometric RAD52-Cy3-dT30-Cy5 complexes (1 nM Cy3-dT30-Cy5 and 8 nM RAD52). […] At each concentration of the compound, the FRET signal was adjusted for the change in Cy3 and Cy5 fluorescence in the presence of the compound, but in the absence of protein.
FRET-based DNA binding and annealing assays: FRET-based ssDNA binding, dsDNA binding, and annealing assays were carried out as previously described (Grimme et al., 2010, Grimme and Spies, 2011) using Cary Eclipse spectrofluorimeter (Varian) at 25° C. in buffer containing 30 mM Tris-Acetate pH7.5, 1 mM DTT, and 0.1 mg/mL BSA. Cy3 dye was excited at 530 nm and its emission was monitored at 565 nm. Emission of Cy5 acceptor fluorophore excited through the energy transfer from Cy3 donor is monitored at 660 nm simultaneously with emission of Cy3 dye. Both the excitation and the emission slit widths were set to 10 nm.
All experiments were performed in triplicates, and the data are shown as averages and standard deviations for three independent measurements. To remove possible experimental artifacts associated with chromogenic or fluorogenic compounds, as well as with the compounds that may quench or enhance Cy3 or Cy5 fluorescence, we also performed control titrations whereby we titrated each compound into 1 nM Cy3-dT30-Cy5 in the absence of RAD52. For each compound concentration we subtracted the difference in the FRET signal in the presence and absence of the compound from the respective FRET signal in the presence of RAD52. The FRET signal corrected for the compound fluorescence was calculated using the equation: […]
as previously described (Grimme et al., 2010, Grimme and Spies, 2011) and plotted as a function of compound concentration and fitted to the following inhibition model”
where FRET0 is the initial FRET value of RAD52-ssDNA complex in the absence of the compound and FRETmin is the FRET value at complete inhibition. FRET values were calculated as an average of three or more independent annealing reactions plotted against the concentration of the compound. Inhibition of the RAD52-dsDNA interaction was assayed in a similar experiment, except the stoichiometric complexes containing 1 nM molecules of Cy3-Oligo28-Cy5 duplex DNA and 10 nM RAD52. […] In all experiments, the FRET values for each data point were corrected for the effects of the compounds on the respective substrate in the absence of RAD52.

Data set [1] is described as follows: Solubility observed during testing. It counts as physicochemical. The note with it: 30 mM Tris-Acetate pH 7.5, 1 mM DTT at 10 μM.
Data set [2] addresses T2, RAD52-mediated ssDNA annealing (Homo sapiens, UniProt P43351).
T2 construct: made in house
T2 sequence (P43351 1-418): T1 sequence (P43351 1-418)
Briefly: FRET-based RAD52-mediated ssDNA annealing assay. It counts as biochemical. As to conditions: Table 1, read-out: IC50 Annealing Extent. An excerpt:
These assays utilize two complementary single stranded 28-nucleotide-long substrates, which contain either Cy3 (T-28) or Cy5 (P-28) incorporated into the middle of the respective DNA strand. When the substrates are annealed by RAD52, the Cy3 and Cy5 dyes are separated by 3 base pairs and yield a high FRET signal (FIG. 2 Supplement 2). […] The annealing reactions were initiated by mixing two half reactions and observing the change in FRET over time in the presence of varying concentrations of small molecules. An increasing FRET value over time indicates formation of the dsDNA duplex which brings the two dyes in close proximity (FIG. 2 Supplement 2). Fitting the annealing data to a double exponential allowed us to calculate and compare the final extent of annealing at varying concentrations of each compound compared to RAD52 alone. We plotted the final extent of annealing vs the concentration of the compound and calculated an IC50 of annealing inhibition.
Annealing of complementary oligonucleotides by RAD52 was monitored under identical conditions as the binding assays described above. For each assay, the reaction master mixture containing 8 nM RAD52 protein in the presence and absence of the compounds at varying concentrations was prepared at room temperature and divided into two half reactions. Following baseline buffer and protein measurements, 0.5 nM of T-28 ssDNA substrate was added to the reaction cuvette and the signal was allowed to stabilize. The annealing reaction was initiated upon addition of the second half-reaction pre-incubated with 0.5 nM P-28 ssDNA substrate. The fluorescence of Cy3 and Cy5 were measured simultaneously over the reaction time course (500 s). FRETapp values were calculated as an average of three or more independent annealing reactions plotted against time (s). The average FRET values were fitted to a double exponential to calculate the final extent of annealing using Graphpad Prism4 software. The calculated annealing extent was plotted as a function of compound concentration and fitted to the same model as we used to determine IC50 values for the inhibition of DNA annealing.

Where [3] appears, read: Table 1, ssDNA, 1 nM Cy3-dT30-Cy5, 8 nM RAD52.
[4] abbreviates: Table 2, methods similar to Example 1.

For the compound `COc1cc(N)c(Cl)cc1C(=O)N[C@H]1CCN(CCCOc2ccc(F)cc2)C[C@H]1OC` [Compound 16, Cisapride Monohydrate, reference compound], the “FRET value at saturation” value on RAD52-ssDNA interaction (Table 1) was 0.50 ± 0.01.
Take `Oc1cc(O)c2c(c1)O[C@H](c1ccc(O)c(O)c1)[C@H](O)C2` [Compound 7, (−)-Epicatechin]: on RAD52-ssDNA interaction (Table 1), the “FRET value at saturation” value is 0.51 ± 0.01. At RAD52-ssDNA interaction (setting [3]), the IC50 (as a rule, the concentration needed to halve the response being measured) was 1450 ± 110 nM. At RAD52-ssDNA interaction, the “IC50 range for ssDNA binding and wrapping, in words” value (shortened to “IC50 range”) is given as “micro-molar range”.
On to `CCOc1cc(C(Nc2cc(C)ccn2)c2ccc3ccc(C)nc3c2O)ccc1OC` (stereo not drawn) [Compound R28, 7-{(3-ethoxy-4-methyoxyphenyl)[(4-methyl-2-pyridinyl)amino]methyl}-2-methyl-8-quinolinol], for which the Solubility result in data set [1] is “Insoluble in 30 mM Tris-Acetate pH 7.5, 1 mM DTT at 10 μM”.
Consider `O/N=C1/CC(O)(C(F)(F)F)Oc2ccccc21` (stereo not drawn) [Compound R21, 2-hydroxy-2-(trifluoromethyl)-2,3-dihydro-4H-chromen-4-one oxime], for which the “FRET value at saturation” value on RAD52-ssDNA interaction (Table 2) was 0.483 ± 0.01. Further, on RAD52-ssDNA interaction (setting [4]), the IC50 was found to be 76000 ± 5570 nM.
In the same order, the values of `Cc1ccc2c(c1)C(=O)CC(O)(C(F)(F)F)O2` (stereo not drawn) [Compound R20, 2-hydroxy-6-methyl-2-(trifluoromethyl)-2,3-dihydro-4H-chromen-4-one] are 0.49 ± 0.01 and 938 ± 12 nM.
On to Asiatic Acid [Compound 18], for which the IC50 in data set [2] is greater than 100000 nM; on RAD52-ssDNA interaction (setting [3]) it was greater than 800000 nM. The “IC50 range” value at RAD52-ssDNA interaction is “high micro-molar range”.
`O=C1c2ccc(O)c(O)c2C(=O)c2c(O)ccc(O)c21` [Compound 15, Quinalizarin]: the IC50 in data set [2] is 5600 ± 600 nM; on RAD52-ssDNA interaction (setting [3]) it was 563 ± 40 nM. Moreover, at RAD52-ssDNA interaction (Table 1), the “FRET value at saturation” value stood at 0.51 ± 0.01. The “IC50 range” value at RAD52-ssDNA interaction is on record as “nano-molar range”.
Take `COc1cc(C2C(C(=O)OCC3CCCO3)=C(C)NC3=C2C(=O)CC(C)(C)C3)ccc1O` (stereo not drawn) [Compound R30, Tetrahydro-2-furanylmethyl 4-(4-hydroxy-3-methoxyphenyl)-2,7,7-trimethyl-5oxo-1,4,5,6,7,8-hexahydro-3-quinolinecarboxylate]: the “FRET value at saturation” value at RAD52-ssDNA interaction (Table 2) was determined as 0.59 ± 0.01. The IC50 on RAD52-ssDNA interaction (setting [4]) amounted to 1300 ± 190 nM.
As to `COc1ccc(C(=O)Nc2ccccc2C(=O)NC(C(=O)Nc2ccccc2)C(C)C)cc1` (stereo not drawn) [Compound R32, N-[1-(anilinocarbonyl)-2-methylpropyl]-2-[(4-methoxybenzoyl)amino]benzamide], at RAD52-ssDNA interaction (Table 2), the “FRET value at saturation” value stood at 0.45 ± 0.01. Besides, on RAD52-ssDNA interaction (setting [4]), the IC50 was 1250 ± 340 nM.
For `O=C(O[C@@H]1Cc2c(O)cc(O)cc2O[C@@H]1c1ccc(O)c(O)c1)c1cc(O)c(O)c(O)c1` [Compound 5, (−)-Epicatechin gallate], the figures for the IC50 (in data set [2]; at RAD52-ssDNA interaction (setting [3])) were 20000 ± 700 nM and 255 ± 16 nM, respectively. In addition, the “FRET value at saturation” value at RAD52-ssDNA interaction (Table 1) is reported as 0.41 ± 0.004. In addition, the “IC50 range” value at RAD52-ssDNA interaction was “nano-molar range”.
As to `CC1(C)COC(O)(C(F)(F)F)CC1=O` (stereo not drawn) [Compound R22, 2-hydroxy-5,5-dimethyl-2-(trifluoromethyl)tetrahydro-4H-pyran-one], the “FRET value at saturation” value on RAD52-ssDNA interaction (Table 2) was 0.49 ± 0.01. In addition, at RAD52-ssDNA interaction (setting [4]), the IC50 was 184000 ± 12000 nM.
In the same order, the values of `CC(O)CC1(O)C(=O)N(C)c2ccccc21` (stereo not drawn) [Compound R23, 3-hydroxy-3-(2-hydroxypropyl)-1-methyl-1,3-dihydro-2H-indol-2-one] are 0.39 ± 0.01 and 84100 ± 1040 nM.
The like results for `CCOc1ccc(C2Nc3ccccc3-c3nnc(SCc4ccccc4)nc3O2)cc1` (stereo not drawn) [Compound R26, 3-(benzylthio)-6-(4-ethoxyphenyl)-6,7-dihydro[1,24]triazino[5,6-d][3,1]benzoxazepine] were, in that order, 0.46 ± 0.01 and 1900 ± 500 nM.
In the case of `C=C1c2cccc(O)c2C(=O)C2=C(O)[C@]3(O)C(=O)C(C(N)=O)=C(O)[C@@H](N(C)C)[C@@H]3[C@@H](O)[C@H]12` [Compound 3, Methacycline Hydrochloride, reference compound], the IC50 was 3800 ± 200 nM in data set [2] and 2000 ± 170 nM at RAD52-ssDNA interaction (setting [3]). In addition, on RAD52-ssDNA interaction (Table 1), the “FRET value at saturation” value came to 0.47 ± 0.01. Besides, the “IC50 range” value at RAD52-ssDNA interaction is given as “micro-molar range”.
As for `COc1cc(/C=N/NC(=O)CCC(C)O)ccc1O` (stereo not drawn) [Compound R33, 4-hydroxy-N′-(4-hydroxy-3-methoxybenzyliden)pentanohydrazide], the “FRET value at saturation” value on RAD52-ssDNA interaction (Table 2) was 0.56 ± 0.01. Further, at RAD52-ssDNA interaction (setting [4]), the concentration for half-maximal inhibition (IC50) turned out to be 849 ± 210 nM.
As for `O=c1c(O)c(-c2ccc(O)c(O)c2)oc2c(O)c(O)cc(O)c12` [Compound 19, Gossypetin], the 50% inhibitory concentration (IC50) turned out to be 6000 ± 2300 nM in data set [2] and 913 ± 58 nM on RAD52-ssDNA interaction (setting [3]). Also, at RAD52-ssDNA interaction (Table 1), the “FRET value at saturation” value is 0.49 ± 0.01. For the same compound, the “IC50 range” value at RAD52-ssDNA interaction is “nano-molar range”.
Turning to `CC1(C)C(=O)C=C[C@@]2(C)C1=C(O)C(=O)[C@]1(C)[C@@H]2CC[C@@]2(C)[C@H](c3ccoc3)C[C@H]3O[C@]321` [Compound 17, Cedrelone], at RAD52-ssDNA interaction (setting [3]), the 50% inhibitory concentration (IC50) is greater than 300000 nM. Besides, the “IC50 range” value at RAD52-ssDNA interaction is recorded as “high micro-molar range”.
Turning to `NCCc1cc(O)c(O)cc1O` [Compound 14, Oxidopamine], at RAD52-ssDNA interaction (Table 1), the “FRET value at saturation” value was 0.50 ± 0.01. The IC50 at RAD52-ssDNA interaction (setting [3]) was found to be 779 ± 51 nM. Besides, the “IC50 range” value on RAD52-ssDNA interaction is on record as “nano-molar range”.
Turning to `CC(C)(O)C1Cc2cc3ccc(=O)oc3cc2O1` (stereo not drawn) [Compound R24, 2-(1-hydroxy-1methylethyl)-2,3-dihydro-7H-furo[3,2-g]crhomen-7-one], on RAD52-ssDNA interaction (setting [4]), the “IC50 (DNA binding)” value was “No inhibition”.
“Rolitetracycline [Compound ‘4’, reference compound]”: the “FRET value at saturation” value on RAD52-ssDNA interaction (Table 1) is on record as 0.56 ± 0.04. For the same compound, on RAD52-ssDNA interaction (setting [3]), the IC50 was 29000 ± 8200 nM. Besides, the “IC50 range” value on RAD52-ssDNA interaction was “mid micro-molar range”.
With `c1ccc(CSc2nnc3c(n2)OC(c2ccc4c(c2)OCO4)Nc2ccccc2-3)cc1` (stereo not drawn) [Compound R25, 6-(1,3-benzodioxol-5-yl)-3-(benzylthio)-6,7-dihydro[1,2,4]triazino[5,6-d][3,1]benzoxazepine], the “FRET value at saturation” value at RAD52-ssDNA interaction (Table 2) is reported as 0.45 ± 0.01. On RAD52-ssDNA interaction (setting [4]), the IC50 worked out at 1600 ± 150 nM.
